{
  "source": "patent US20200129592A1",
  "about": "“COMPOSITION FOR TREATING STROKE AND METHOD FOR SCREENING THE SAME” (CHA University Industry-Academic Cooperation Foundation, priority 2018, published 2020)",
  "type_in_all_cases": "cell-based, mouse",
  "key": {"[1]": {"tested_on": "Raw 264.7 cells", "assay": "IL-1β and IL-1ra ELISA in supernatants of Raw 264.7 cells", "details": "LPS alone", "protocol": "A mouse macrophage cell line (Raw 264.7 cell, ATCC, VA) was cultured according to the manufacturer's instructions. The raw 264.7 cells were treated with either LPS (100 ng/ml, Sigma-Aldrich, MO) or LPS together with hUMSCs-CM for 24 hrs, and the supernatants were isolated from each treated group.\n(§1) IL-1β and IL-1ra levels were measured in supernatants of Raw 264.7 cells using commercially available ELISA kits (IL-1β Quantikine ELISA and IL-1 ra Quantikine ELISA kits, R&D Systems, MN)."}, "[2]": {"tested_on": "Raw 264.7 cells", "assay": "Knockdown of CREB by siRNA in Raw 264.7 cells", "protocol": "After Raw 264.7 cells (2×10^5) were plated in 6-well plates, transfection with 100 nM of CREB siRNA (siCREB) and control (siCtr) was performed for 48 hrs using Lipofectamine 3000 reagent (Invitrogen, MA) according to the manufacturer's instructions. The siCREB (sense: 5′-[…]-3″, antisense: 5′-[…]-3″) and siCtr (sense: 5-ACGUGACACGUUCGGAGAA-3′, antisense: 5′-UUCUCCGAACGUGUCACGU-3″) were purchased from Genolution Pharmaceuticals, Inc. After transfection, the RNA and proteins were isolated and used for PCR and western blotting, respectively."}, "[3]": {"tested_on": "Raw 264.7 cells", "assay": "Inhibition of p-CREB with KG501, IL-1ra ELISA in Raw 264.7 cells", "details": "KG501 2, 5, 10 μM pretreatment 45 min, then hUMSCs-CM with LPS 200 ng/ml", "protocol": "Raw 264.7 cells (2×10^5) were seeded onto the plate, and incubated for 24 hrs. The cells were pretreated with a serum-free medium containing KG501 (2 μM, 5 μM, and 10 μM, Sigma-Aldrich, MO) for 45 min. The supernatant was then removed from the dish, and the cells were treated with hUMSCs-CM in the presence of LPS (200 ng/ml). The supernatant was used for IL-1ra ELISA analysis. Independent experiments were triplicated on different days.\nas §1"}},
  "data": [
    {"compound": "lipopolysaccharide [LPS]", "values": [
      {"measurement": "IL-1ra level in Raw 264.7 cells", "setting": "[1]", "value": "strongly elevated"},
      {"measurement": "IL-1β level in Raw 264.7 cells", "setting": "[1]", "value": "strongly elevated"}
    ]},
    {"compound": "siCREB: CREB siRNA, sense 5′-CCACAAAUCAGAUUAAUUUUU-3″, antisense 5′-AAAUUAAUCUGAUUUGUGGUU-3″ (chemistry not given here)", "values": [
      {"measurement": "enhanced expression of IL1RN induced by hUMSCs-CM", "setting": "[2]; LPS-stimulated Raw 264.7 cells, knockdown of CREB", "value": "reduced"},
      {"measurement": "expression of IL-1ra protein in Raw 264.7 cells", "setting": "[2]; transfection with 100 nM siCREB, 48 hrs", "value": "reduced"}
    ]},
    {"compound": "O=C(Nc1ccc(Cl)cc1)c1cc2ccccc2cc1OP(=O)(O)O", "note": "[KG501]", "values": [
      {"measurement": "increase of IL-1ra expression by hUMSCs-CM treatment", "setting": "[3]", "value": "inhibited in a CREB inhibitor dose-dependent manner"}
    ]}
  ]
}
